From paper PMC7979765, “trans-Translation inhibitors bind to a novel site on the ribosome and clear Neisseria gonorrhoeae in vivo” (Nature Communications, 2021)
pIC50: −log10 of the molar value. ≈ marks a conversion by molar mass, not a printed value. Where “and” joins values, the source holds several entries; their conditions need not be identical. Equal values may be shown once.

Assays:
[1] = test system: N. gonorrhoeae ATCC 49226; assay: Time-kill assay
Neisseria gonorrhoeae = assay: MIC, microbroth dilution, G77L medium; format: cell-based; details: Neisseria gonorrhoeae ATCC 49226; source data, individual replicates
HeLa cells [2] = assay: Mammalian cell cytotoxicity (CC50); format: cell-based, human; details: HeLa, replicates
Experimental: The half maximal cytotoxic concentration (CC50) of each compound against HeLa cells (ATCC CCL-2) was measured as previously described. […] The mean values for each biological replicate were averaged, and the CC50 was determined using a 4-parameter nonlinear curve fitting algorithm (GraphPad Prism). The average of the CC50s from two biological replicates was calculated and reported.

[3] = Aqueous solubility (nephelometric); format: physicochemical
HeLa cells [4] = assay: Mammalian cell cytotoxicity (CC50); format: cell-based, human; details: one value per replicate
Escherichia coli = assay: microbe, parasite or virus in culture; format: cell-based; details: E. coli KLE701 (ΔtolC::tet); source data, individual replicates
trans-translation = assay: microbe, parasite or virus in culture; format: cell-based, Escherichia coli; details: Eco Luc reporter, one value per replicate; read-out: IC50
Experimental: To verify that MBX-4132 retains activity as an inhibitor of trans-translation, we measured its dose-dependent activity against the non-stop luciferase reporter assay strain E. coli SB75 ΔtolC::kan (pluc-trpAt) essentially as described, with modifications. Briefly, serial 1.5-fold dilutions of MBX-4132 in DMSO were transferred to 96-well assay plates (Costar 3195), followed by the addition of 50 µl of an overnight culture of SB75 ΔtolC::kan (pluc-trpAt) that had been diluted to a final OD600 of 0.4 with LB media supplemented with 100 µg ampicillin/ml and 1 mM IPTG. […] The assay plates were incubated at room temperature for 2 h, and 50 µl of BrightGlo (Promega) bioluminescence reagent was added to each well. After 10 min incubation, bioluminescence intensity was measured using an Envision multi-label plate reader (Perkin Elmer). Each assay comprised three technical replicates, and the experiment was repeated three times. The fold induction for each MBX-4132 treated sample as compared to the DMSO-only sample was calculated for each technical replicate, and the average and standard deviation of the three technical was calculated. The IC50 was determined using a 4-parameter nonlinear curve fitting algorithm (GraphPad Prism).

[5] = Liver microsome stability, murine; format: in vitro ADME, mouse; details: murine liver microsomes
Experimental: To examine potential for first-pass metabolism of analogs in the liver, the stability of analogs in the presence of liver microsome preparations (Eurofins Discovery for human, dog and rat; Xenotech for mouse) was measured using the method of Kuhnz, et al.[50]. for murine studies and Oback for the dog, human and rat studies. The amount of parent compound remaining after incubation with microsomes in the presence of NADPH over a 30 min time range was measured using a reverse-phase liquid chromatography/mass spectroscopy method that was customized for each compound. Half-lives were calculated using linear regression analysis of several time points.

CO/N=C(\C(=O)N[C@@H]1C(=O)N2C(C(=O)O)=C(CSc3nc(=O)c(=O)[nH]n3C)CS[C@H]12)c1csc(N)n1 [CRO, reference compound]
AVE CFU/ml ([1]; 1X MIC, 0 h): 9800000 CFU/ml | AVE CFU/ml ([1]; 1X MIC, 1 h): 8.20E+06 CFU/ml and 8200000 CFU/ml | CFU/mL, replicates 1-3 ([1]; 1X MIC, 1 h): 8200000 CFU/mL and 8000000 CFU/mL and 8400000 CFU/mL | AVE CFU/ml ([1]; 1X MIC, 2 h): 3.47E+06 CFU/ml and 3466667 CFU/ml | CFU/mL, replicates 1-3 ([1]; 1X MIC, 2 h): 3800000 CFU/mL and 3200000 CFU/mL and 3400000 CFU/mL | AVE CFU/ml ([1]; 1X MIC, 4 h): 60666.7 CFU/ml and 6.07E+04 CFU/ml | CFU/mL, replicates 1-3 ([1]; 1X MIC, 4 h): 60000 CFU/mL and 58000 CFU/mL and 64000 CFU/mL | AVE CFU/ml ([1]; 1X MIC, 6 h): 27333.3 CFU/ml and 2.73E+04 CFU/ml | CFU/mL, replicates 1-3 ([1]; 1X MIC, 6 h): 24000 CFU/mL and 32000 CFU/mL and 26000 CFU/mL | AVE CFU/ml ([1]; 1X MIC, 8 h): 5733.33 CFU/ml and 5.73E+03 CFU/ml | CFU/mL, replicates 1-3 ([1]; 1X MIC, 8 h): 5800 CFU/mL and 5400 CFU/mL and 6000 CFU/mL | AVE CFU/ml ([1]; 1X MIC, 24 h): 2466667 CFU/ml and 2.47E+06 CFU/ml | CFU/mL, replicates 1-3 ([1]; 1X MIC, 24 h): 2400000 CFU/mL and 2200000 CFU/mL and 2800000 CFU/mL | AVE CFU/ml ([1]; 4X MIC, 0 h): 9800000 CFU/ml | AVE CFU/ml ([1]; 4X MIC, 1 h): 7.67E+06 CFU/ml and 7666667 CFU/ml | CFU/mL, replicates 1-3 ([1]; 4X MIC, 1 h): 7800000 CFU/mL and 7200000 CFU/mL and 8000000 CFU/mL | AVE CFU/ml ([1]; 4X MIC, 2 h): 3.87E+06 CFU/ml and 3866667 CFU/ml | CFU/mL, replicates 1-3 ([1]; 4X MIC, 2 h): 3400000 CFU/mL and 4000000 CFU/mL and 4200000 CFU/mL | AVE CFU/ml ([1]; 4X MIC, 4 h): 40000 CFU/ml and 4.00E+04 CFU/ml | CFU/mL, replicates 1-3 ([1]; 4X MIC, 4 h): 36000 CFU/mL and 42000 CFU/mL (2×) | AVE CFU/ml ([1]; 4X MIC, 6 h): 5266.67 CFU/ml and 5.27E+03 CFU/ml | CFU/mL, replicates 1-3 ([1]; 4X MIC, 6 h): 4400 CFU/mL and 5200 CFU/mL and 6200 CFU/mL | AVE CFU/ml ([1]; 4X MIC, 8 h): 1066.67 CFU/ml and 1.07E+03 CFU/ml | CFU/mL, replicates 1-3 ([1]; 4X MIC, 8 h): 1400 CFU/mL and 800 CFU/mL and 1000 CFU/mL | AVE CFU/ml ([1]; 4X MIC, 24 h): 0 CFU/ml and 0.00E+00 CFU/ml | CFU/mL, replicates 1-3 ([1]; 4X MIC, 24 h): 0 CFU/mL | MIC ([1]; Neisseria gonorrhoeae, ATCC49226): 0.008 µg/mL (≈ 0.0144 µM)

CN(C(=O)c1ccc(Cl)cc1)c1nnc(-c2ccc(F)cc2)o1 [MBX-4076]
MIC (Neisseria gonorrhoeae): 2.073 µg/mL (≈ 6.25 µM) | […] (Fraction DMSO Control) (HeLa cells [2]; [CMPD] 0.78125 µM): 1.197 Fraction DMSO Control and 0.943 Fraction DMSO Control and 1.027 Fraction DMSO Control | […] (Fraction DMSO Control) (HeLa cells [2]; [CMPD] 1.5625 µM): 1.13 Fraction DMSO Control and 0.9796 Fraction DMSO Control and 1.003 Fraction DMSO Control | […] (Fraction DMSO Control) (HeLa cells [2]; [CMPD] 3.125 µM): 1.12 Fraction DMSO Control and 0.9889 Fraction DMSO Control and 1.051 Fraction DMSO Control | […] (Fraction DMSO Control) (HeLa cells [2]; [CMPD] 6.25 µM): 1.086 Fraction DMSO Control and 0.9295 Fraction DMSO Control and 1.003 Fraction DMSO Control | […] (Fraction DMSO Control) (HeLa cells [2]; [CMPD] 12.5 µM): 1.084 Fraction DMSO Control and 0.9742 Fraction DMSO Control and 1.016 Fraction DMSO Control | […] (Fraction DMSO Control) (HeLa cells [2]; [CMPD] 25 µM): 1.061 Fraction DMSO Control and 0.9434 Fraction DMSO Control and 0.9966 Fraction DMSO Control | […] (Fraction DMSO Control) (HeLa cells [2]; [CMPD] 50 µM): 1.042 Fraction DMSO Control and 0.8579 Fraction DMSO Control and 0.8811 Fraction DMSO Control | […] (Fraction DMSO Control) (HeLa cells [2]; [CMPD] 100 µM): 0.7388 Fraction DMSO Control and 0.6179 Fraction DMSO Control and 0.6661 Fraction DMSO Control | Average solubility [3]: <3.1 µM | Solubility ([3]; single replicates): 3.1 µM and <3.1 µM (2×) | CC50 (HeLa cells [4]): ≥ 100 µM | MIC (Escherichia coli): 8.293 µg/mL and 4.147 µg/mL and 2.073 µg/mL

O=C(Nc1nnco1)c1ccc(Cl)cc1 [MBX-4367]
MIC (Neisseria gonorrhoeae): 11.181 µg/mL (≈ 50 µM) | NORMALIZED DATA (Fraction DMSO Control) (HeLa cells [2]; [CMPD] 0.78125 µM): 1.189 Fraction DMSO Control and 0.9321 Fraction DMSO Control and 1.018 Fraction DMSO Control | NORMALIZED DATA (Fraction DMSO Control) (HeLa cells [2]; [CMPD] 1.5625 µM): 1.137 Fraction DMSO Control and 0.9966 Fraction DMSO Control and 1.019 Fraction DMSO Control | NORMALIZED DATA (Fraction DMSO Control) (HeLa cells [2]; [CMPD] 3.125 µM): 1.148 Fraction DMSO Control and 1.015 Fraction DMSO Control and 1.071 Fraction DMSO Control | NORMALIZED DATA (Fraction DMSO Control) (HeLa cells [2]; [CMPD] 6.25 µM): 1.124 Fraction DMSO Control and 0.9955 Fraction DMSO Control and 1.053 Fraction DMSO Control | NORMALIZED DATA (Fraction DMSO Control) (HeLa cells [2]; [CMPD] 12.5 µM): 1.13 Fraction DMSO Control and 1.055 Fraction DMSO Control and 1.044 Fraction DMSO Control | NORMALIZED DATA (Fraction DMSO Control) (HeLa cells [2]; [CMPD] 25 µM): 1.072 Fraction DMSO Control and 0.9837 Fraction DMSO Control and 1.014 Fraction DMSO Control | NORMALIZED DATA (Fraction DMSO Control) (HeLa cells [2]; [CMPD] 50 µM): 1.146 Fraction DMSO Control and 0.9608 Fraction DMSO Control and 0.9961 Fraction DMSO Control | NORMALIZED DATA (Fraction DMSO Control) (HeLa cells [2]; [CMPD] 100 µM): 0.9043 Fraction DMSO Control and 0.7595 Fraction DMSO Control and 0.7474 Fraction DMSO Control | pIC50 (trans-translation): ≤ 4.60 | CC50 (HeLa cells [4]): ≥ 100 µM | Average MLMS t½ ([5]; average of replicates): <5 min | MLMS t½ ([5]; individual replicates): <5 min | MIC (Escherichia coli): 22.362 µg/ml and >=22.362 µg/ml
